# According to PubChem BioAssay (NCI):
#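 At the GI50, growth is halved. TGI: concentration producing complete growth inhibition.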
# Tests used:
# Assay in all cases: NCI tumour cell line growth inhibition, 384-well format
# 786-0 renal = system: 786-0 renal
# ACHN renal = system: ACHN renal
# A549 NSCLC = system: A549 NSCLC
# LOX IMVI melanoma = system: LOX IMVI melanoma
# MCF7 breast = system: MCF7 breast
# IGROV1 ovarian = system: IGROV1 ovarian
# MALME-3M melanoma = system: MALME-3M melanoma
# KM12 colon = system: KM12 colon
# RXF 393 renal = system: RXF 393 renal
# HOP-62 NSCLC = system: HOP-62 NSCLC
# HOP-92 NSCLC = system: HOP-92 NSCLC
# HCT-116 colon = system: HCT-116 colon
# M14 melanoma = system: M14 melanoma
# HCT-15 colon = system: HCT-15 colon
# SN12C renal = system: SN12C renal
# MDA-MB-231 breast = system: MDA-MB-231 breast
# COLO 205 colon = system: COLO 205 colon
# CAKI-1 renal = system: CAKI-1 renal
# HT29 colon = system: HT29 colon
# SK-OV-3 ovarian = system: SK-OV-3 ovarian
# EKVX NSCLC = system: EKVX NSCLC
# HCC-2998 colon = system: HCC-2998 colon
# DU-145 prostate = system: DU-145 prostate
# BT-549 breast = system: BT-549 breast
# HL-60(TB) leukemia = system: HL-60(TB) leukemia
# HS 578T breast = system: HS 578T breast
# A498 renal = system: A498 renal
smiles,measurement,setting,value
CN1CCC(COc2cnc(-c3cccc(Cn4nc(-c5cccc(C#N)c5)ccc4=O)c3)nc2)CC1,GI50,786-0 renal,1.69 µM
same,TGI,786-0 renal,3.22 µM
same,GI50,ACHN renal,2.05 µM
same,TGI,ACHN renal,3.76 µM
same,GI50,A549 NSCLC,2.2 µM
same,TGI,A549 NSCLC,4.56 µM
same,GI50,LOX IMVI melanoma,1.71 µM
same,TGI,LOX IMVI melanoma,3.1 µM
same,GI50,MCF7 breast,1.68 µM
same,TGI,MCF7 breast,3.36 µM
same,GI50,IGROV1 ovarian,2.17 µM
same,TGI,IGROV1 ovarian,4.16 µM
same,GI50,MALME-3M melanoma,1.59 µM
same,TGI,MALME-3M melanoma,2.93 µM
same,GI50,KM12 colon,2.38 µM
same,TGI,KM12 colon,4.81 µM
same,GI50,RXF 393 renal,1.32 µM
same,TGI,RXF 393 renal,2.64 µM
same,GI50,HOP-62 NSCLC,1.96 µM
same,TGI,HOP-62 NSCLC,3.77 µM
same,GI50,HOP-92 NSCLC,1.72 µM
same,TGI,HOP-92 NSCLC,3.4 µM
same,GI50,HCT-116 colon,1.75 µM
same,TGI,HCT-116 colon,3.16 µM
same,GI50,M14 melanoma,2.09 µM
same,TGI,M14 melanoma,3.53 µM
same,GI50,HCT-15 colon,1.45 µM
same,TGI,HCT-15 colon,2.94 µM
same,GI50,SN12C renal,> 100 µM
same,TGI,SN12C renal,> 100 µM
same,GI50,MDA-MB-231 breast,1.94 µM
same,TGI,MDA-MB-231 breast,3.41 µM
same,GI50,COLO 205 colon,2.46 µM
same,TGI,COLO 205 colon,5.35 µM
same,GI50,CAKI-1 renal,1.73 µM
same,TGI,CAKI-1 renal,3.2 µM
same,GI50,HT29 colon,1.74 µM
same,TGI,HT29 colon,3.15 µM
same,GI50,SK-OV-3 ovarian,> 100 µM
same,TGI,SK-OV-3 ovarian,> 100 µM
same,GI50,EKVX NSCLC,2.77 µM
same,TGI,EKVX NSCLC,6.49 µM
same,GI50,HCC-2998 colon,3.2 µM
same,TGI,HCC-2998 colon,5.67 µM
same,GI50,DU-145 prostate,2.53 µM
same,TGI,DU-145 prostate,5.89 µM
same,GI50,BT-549 breast,1.44 µM
same,TGI,BT-549 breast,2.76 µM
same,GI50,HL-60(TB) leukemia,1.57 µM
same,TGI,HL-60(TB) leukemia,2.91 µM
same,GI50,HS 578T breast,1.48 µM
same,TGI,HS 578T breast,2.85 µM
same,GI50,A498 renal,2.04 µM
same,TGI,A498 renal,3.62 µM
